Each structure is given as a SMILES string.

This assay deals with G12C K-Ras4B (1-169) (Homo sapiens (Human), UniProt P01116, G12C). As to the kind of experiment: Test of compounds on whether to bind to KRASG12C (LC-MS compound binding rate). The settings on record: final compound concentration of 2 μM, 1 μM protein, 25° C. for 2 hours. A digest of the protocol: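 K-Ras4B (1-169) WT and G12C (1 μM each, mixed) in 1×TBS, 0.1 mM TCEP incubated with compound (final 2 μM) 2 h at 25° C; quenched with 0.2% formic acid. Intact-protein LC-MS (ESI+, deconvoluted); binding rate = adduct signal/(adduct + unbound signal), giving selectivity over WT.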
Sequence of G12C K-Ras4B (1-169) (P01116 other isoform, or with tags, fused parts or gaps G12C): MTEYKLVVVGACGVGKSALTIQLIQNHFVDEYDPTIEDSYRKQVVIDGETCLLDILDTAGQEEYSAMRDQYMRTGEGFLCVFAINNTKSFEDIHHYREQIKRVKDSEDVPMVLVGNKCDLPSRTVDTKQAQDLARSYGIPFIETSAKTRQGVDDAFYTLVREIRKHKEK
Regarding `C=CC(=O)N1C[C@H](NC(=O)c2c(C)nc(CNc3n[nH]c4cc(Cl)c(C(C)(C)C)cc34)n2C)C2(CC2)C1` [Example 54, (R)—N-(5-acryloyl-5-azaspiro[2.4]heptan-7-yl)-2-(((5-(tert-butyl)-6-chloro-1H-indazol-3-yl)amino)methyl)-1,4-dimethyl-1H-imidazole-5-carboxamide], the “binding rate for G12C K-Ras4B (1-169)” value was “B (a binding rate of 60% or more and less than 80% is rated “B,”)”. In the case of `C=CC(=O)N1C[C@@H](C)[C@@H](NC(=O)c2c(C)nc(CNc3n[nH]c4cc(Cl)c(C(C)(C)C)cc34)n2C)C1` [Example 55, N-((3R,4R)-1-acryloyl-4-methylpyrrolidin-3-yl)-2-(((5-(tert-butyl)-6-chloro-1H-indazol-3-yl)amino)methyl)-1,4-dimethyl-1H-imidazole-5-carboxamide], the “binding rate for G12C K-Ras4B (1-169)” value is reported as “A (a binding rate of 80% or more is rated “A,”)”.

With `C=CC(=O)N1C[C@@H](O)[C@@H](NC(=O)c2c(C)nc(CNc3n[nH]c4cc(Cl)c(C(C)(C)C)cc34)n2C)C1` [Example 56, N-((3S,4R)-1-acryloyl-4-hydroxypyrrolidin-3-yl)-2-(((5-(tert-butyl)-6-chloro-1H-indazol-3-yl)amino)methyl)-1,4-dimethyl-1H-imidazole-5-carboxamide], the “binding rate for G12C K-Ras4B (1-169)” value is “C (a binding rate of 40% or more and less than 60% is rated “C,”)”. With `C=CC(=O)N1C[C@@H](F)[C@@H](NC(=O)c2c(C)nc(CNc3n[nH]c4cc(Cl)c(C(C)(C)C)cc34)n2C)C1` [Example 57, N-((3S,4R)-1-acryloyl-4-fluoropyrrolidin-3-yl)-2-(((5-(tert-butyl)-6-chloro-1H-indazol-3-yl)amino)methyl)-1,4-dimethyl-1H-imidazole-5-carboxamide], the “binding rate for G12C K-Ras4B (1-169)” value is “C (a binding rate of 40% or more and less than 60% is rated “C,”)”. The result for `C=CC(=O)N1C[C@@H](CO)[C@@H](NC(=O)c2c(C)nc(CNc3n[nH]c4cc(Cl)c(C(C)(C)C)cc34)n2C)C1` [Example 58, N-((3R,4R)-1-acryloyl-4-(hydroxymethyl)pyrrolidin-3-yl)-2-(((5-(tert-butyl)-6-chloro-1H-indazol-3-yl)amino)methyl)-1,4-dimethyl-1H-imidazole-5-carboxamide] reads “B (a binding rate of 60% or more and less than 80% is rated “B,”)”; that for `C=CC(=O)N1C[C@H](NC(=O)c2c(C)nc(CNc3n[nH]c4cc(Cl)c(C(C)(C)C)cc34)n2C)[C@@H](C)C1` [Example 60, N-((3R,4S)-1-acryloyl-4-methylpyrrolidin-3-yl)-2-(((5-(tert-butyl)-6-chloro-1H-indazol-3-yl)amino)methyl)-1,4-dimethyl-1H-imidazole-5-carboxamide], “C (a binding rate of 40% or more and less than 60% is rated “C,”)”; that for `C=CC(=O)N1C[C@H](NC(=O)c2c(C)nc(CNc3n[nH]c4cc(Cl)c(C(C)(C)C)cc34)n2C)[C@H](OC)C1` [Example 61, N-((3S,4R)-1-acryloyl-4-methoxypyrrolidin-3-yl)-2-(((5-(tert-butyl)-6-chloro-1H-indazol-3-yl)amino)methyl)-1,4-dimethyl-1H-imidazole-5-carboxamide], “B (a binding rate of 60% or more and less than 80% is rated “B,”)”. The result for `C=CC(=O)N1C[C@H](NC(=O)c2c(C)nc(CNc3n[nH]c4cc(Cl)c(C(C)(C)C)cc34)n2C)[C@@H](O)C1` [Example 62, N-((3S,4S)-1-acryloyl-4-hydroxypyrrolidin-3-yl)-2-(((5-(tert-butyl)-6-chloro-1H-indazol-3-yl)amino)methyl)-1,4-dimethyl-1H-imidazole-5-carboxamide] reads “A (a binding rate of 80% or more is rated “A,”)”; that for `C=CC(=O)N1C[C@H](NC(=O)c2c(C)nc(CNc3n[nH]c4cc(Cl)c(C(C)(C)C)cc34)n2C)[C@@H](OC)C1` [Example 63, N-((3S,4S)-1-acryloyl-4-methoxypyrrolidin-3-yl)-2-(((5-(tert-butyl)-6-chloro-1H-indazol-3-yl)amino)methyl)-1,4-dimethyl-1H-imidazole-5-carboxamide], “B (a binding rate of 60% or more and less than 80% is rated “B,”)”. As for `C=CC(=O)N1C[C@@H](CC#N)[C@@H](NC(=O)c2c(C)nc(CNc3n[nH]c4cc(Cl)c(C(C)(C)C)cc34)n2C)C1` [Example 65, N-((3R,4R)-1-acryloyl-4-(cyanomethyl)pyrrolidin-3-yl)-2-(((5-(tert-butyl)-6-chloro-1H-indazol-3-yl)amino)methyl)-1,4-dimethyl-1H-imidazole-5-carboxamide], the “binding rate for G12C K-Ras4B (1-169)” value is “B (a binding rate of 60% or more and less than 80% is rated “B,”)”. The result for `C=CC(=O)N1C[C@@H](CF)[C@@H](NC(=O)c2c(C)nc(CNc3n[nH]c4cc(Cl)c(C(C)(C)C)cc34)n2C)C1` [Example 66, N-((3R,4R)-1-acryloyl-4-(fluoromethyl)pyrrolidin-3-yl)-2-(((5-(tert-butyl)-6-chloro-1H-indazol-3-yl)amino)methyl)-1,4-dimethyl-1H-imidazole-5-carboxamide] reads “A (a binding rate of 80% or more is rated “A,”)”; that for `C=CC(=O)N1C[C@@H](COC)[C@@H](NC(=O)c2c(C)nc(CNc3n[nH]c4cc(Cl)c(C(C)(C)C)cc34)n2C)C1` [Example 67, N-((3R,4R)-1-acryloyl-4-(methoxymethyl)pyrrolidin-3-yl)-2-(((5-(tert-butyl)-6-chloro-1H-indazol-3-yl)amino)methyl)-1,4-dimethyl-1H-imidazole-5-carboxamide], “A (a binding rate of 80% or more is rated “A,”)”.

In the case of `C=CC(=O)N1C[C@@H](CN(C)C)[C@@H](NC(=O)c2c(C)nc(CNc3n[nH]c4cc(Cl)c(C(C)(C)C)cc34)n2C)C1` [Example 68, N-((3R,4R)-1-acryloyl-4-((dimethylamino)methyl)pyrrolidin-3-yl)-2-(((5-(tert-butyl)-6-chloro-1H-indazol-3-yl)amino)methyl)-1,4-dimethyl-1H-imidazole-5-carboxamide], the “binding rate for G12C K-Ras4B (1-169)” value is “C (a binding rate of 40% or more and less than 60% is rated “C,”)”.

Consider `C=CC(=O)N1C[C@@H](CC)[C@@H](NC(=O)c2c(C)nc(CNc3n[nH]c4cc(Cl)c(C(C)(C)C)cc34)n2C)C1` [Example 69, N-((3R,4R)-1-acryloyl-4-ethylpyrrolidin-3-yl)-2-(((5-(tert-butyl)-6-chloro-1H-indazol-3-yl)amino)methyl)-1,4-dimethyl-1H-imidazole-5-carboxamide], for which the “binding rate for G12C K-Ras4B (1-169)” value is “E (a binding rate of less than 20% is rated “E.”)”. The same measure for `C=CC(=O)N1C[C@H](NC(=O)c2c(C(F)F)nc(CNc3n[nH]c4cc(Cl)c(C(C)(C)C)cc34)n2C)[C@@H](F)C1` [Example 70, N-((3S,4S)-1-acryloyl-4-fluoropyrrolidin-3-yl)-2-(((5-(tert-butyl)-6-chloro-1H-indazol-3-yl)amino)methyl)-4-(difluoromethyl)-1-methyl-1H-imidazole-5-carboxamide]: “A (a binding rate of 80% or more is rated “A,”)”.

With `C=CC(=O)N1C[C@@H](C)[C@@H](NC(=O)c2c(C(F)F)nc(CNc3n[nH]c4cc(Cl)c(C(C)(C)C)cc34)n2C)C1` [Example 71, N-((3R,4R)-1-acryloyl-4-methylpyrrolidin-3-yl)-2-(((5-(tert-butyl)-6-chloro-1H-indazol-3-yl)amino)methyl)-4-(difluoromethyl)-1-methyl-1H-imidazole-5-carboxamide], the “binding rate for G12C K-Ras4B (1-169)” value was “C (a binding rate of 40% or more and less than 60% is rated “C,”)”. `C=CC(=O)N1CC[C@@H](NC(=O)c2c(F)nc(CNc3n[nH]c4cc(Cl)c(C(C)(C)C)cc34)n2C)C1` [Example 72, (R)—N-(1-acryloylpyrrolidin-3-yl)-2-(((5-(tert-butyl)-6-chloro-1H-indazol-3-yl)amino)methyl)-4-fluoro-1-methyl-1H-imidazole-5-carboxamide]: the “binding rate for G12C K-Ras4B (1-169)” value is “B (a binding rate of 60% or more and less than 80% is rated “B,”)”. As to `C=CC(=O)N1CC[C@@H](NC(=O)c2c(Cl)nc(CNc3n[nH]c4cc(Cl)c(C(C)(C)C)cc34)n2C)C1` [Example 73, (R)—N-(1-acryloylpyrrolidin-3-yl)-2-(((5-(tert-butyl)-6-chloro-1H-indazol-3-yl)amino)methyl)-4-chloro-1-methyl-1H-imidazole-5-carboxamide], the “binding rate for G12C K-Ras4B (1-169)” value is “B (a binding rate of 60% or more and less than 80% is rated “B,”)”. The result for `C=CC(=O)N1C[C@@H](C)[C@@H](NC(=O)c2c(F)nc(CNc3n[nH]c4cc(Cl)c(C(C)(C)C)cc34)n2C)C1` [Example 74, N-((3R,4R)-1-acryloyl-4-methylpyrrolidin-3-yl)-2-(((5-(tert-butyl)-6-chloro-1H-indazol-3-yl)amino)methyl)-4-fluoro-1-methyl-1H-imidazole-5-carboxamide] reads “A (a binding rate of 80% or more is rated “A,”)”; that for `C=CC(=O)N1CC[C@@H](N(C)C(=O)c2cnc(CNc3n[nH]c4cc(Cl)c(C(C)(C)C)cc34)n2C)C1` [Example 77, (R)—N-(1-acryloylpyrrolidin-3-yl)-2-(((5-(tert-butyl)-6-chloro-1H-indazol-3-yl)amino)methyl)-N,1-dimethyl-1H-imidazole-5-carboxamide], “C (a binding rate of 40% or more and less than 60% is rated “C,”)”; that for `Cc1nc(CNc2n[nH]c3cc(Cl)c(C(C)(C)C)cc23)n(C(C)C)c1C(=O)NC1CN(C(=O)/C=C/CN2CCCCC2)C1` [Example 79, (E)-2-(((5-(tert-butyl)-6-chloro-1H-indazol-3-yl)amino)methyl)-1-isopropyl-4-methyl-N-(1-(4-(piperidin-1-yl)but-2-enoyl)azetidin-3-yl)-1H-imidazole-5-carboxamide], “E (a binding rate of less than 20% is rated “E.”)”.
